Laboratory results: ChEMBL document CHEMBL3632570, “Structure-Guided Design of Novel l-Cysteine Derivatives as Potent KSP Inhibitors” (ACS Med Chem Lett, 2015)
The source made the active and inactive calls. No cut-off for these calls is given here.

Assays:
[1] = tested on: HCT-116; experiment: Antitumor activity against human HCT116 cells xenografted in athymic nude BALB/cAJcL mouse assessed as inhibition of tumor growth at 75 mg/kg, iv administered on days 1,3,5,8,10 and 12 measured on day 15; type: functional
[2] = tested on: HCT-116; experiment: Antitumor activity against human HCT116 cells xenografted in athymic nude BALB/cAJcL mouse assessed as inhibition of tumor growth at 25 mg/kg, iv administered on days 1,3,5,8,10 and 12 measured on day 15; type: functional
[3] = target: T1, Kinesin-like protein KIF22 (Homo sapiens) (UniProt Q14807); experiment: Inhibition of microtubule-stimulated Kid motor domain (1 to 336) (unknown origin) ATPase activity at 6.3 uM
T1 sequence (whole entry): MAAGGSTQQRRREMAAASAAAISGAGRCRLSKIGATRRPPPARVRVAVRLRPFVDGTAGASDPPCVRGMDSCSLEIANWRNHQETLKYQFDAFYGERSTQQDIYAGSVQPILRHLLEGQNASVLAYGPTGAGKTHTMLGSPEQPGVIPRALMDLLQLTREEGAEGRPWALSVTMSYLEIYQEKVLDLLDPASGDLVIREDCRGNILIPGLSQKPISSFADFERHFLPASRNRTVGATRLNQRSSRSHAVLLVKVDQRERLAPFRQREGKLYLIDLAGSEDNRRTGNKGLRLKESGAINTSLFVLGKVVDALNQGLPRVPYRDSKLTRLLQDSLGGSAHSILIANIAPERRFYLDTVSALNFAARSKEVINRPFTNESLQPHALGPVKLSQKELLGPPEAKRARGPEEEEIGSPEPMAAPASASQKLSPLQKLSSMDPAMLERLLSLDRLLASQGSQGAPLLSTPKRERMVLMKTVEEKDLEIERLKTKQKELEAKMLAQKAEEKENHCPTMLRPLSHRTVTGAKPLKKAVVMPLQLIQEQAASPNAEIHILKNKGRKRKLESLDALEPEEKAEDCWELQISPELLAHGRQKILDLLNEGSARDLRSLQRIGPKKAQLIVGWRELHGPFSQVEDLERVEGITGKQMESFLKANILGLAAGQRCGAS

[4] = target: T2, Kinesin-like protein KIFC3 (Homo sapiens) (UniProt Q9BVG8); experiment: Inhibition of microtubule-stimulated KIFC3 motor domain (303 to 638) (unknown origin) ATPase activity at 6.3 uM
T2 sequence (whole entry): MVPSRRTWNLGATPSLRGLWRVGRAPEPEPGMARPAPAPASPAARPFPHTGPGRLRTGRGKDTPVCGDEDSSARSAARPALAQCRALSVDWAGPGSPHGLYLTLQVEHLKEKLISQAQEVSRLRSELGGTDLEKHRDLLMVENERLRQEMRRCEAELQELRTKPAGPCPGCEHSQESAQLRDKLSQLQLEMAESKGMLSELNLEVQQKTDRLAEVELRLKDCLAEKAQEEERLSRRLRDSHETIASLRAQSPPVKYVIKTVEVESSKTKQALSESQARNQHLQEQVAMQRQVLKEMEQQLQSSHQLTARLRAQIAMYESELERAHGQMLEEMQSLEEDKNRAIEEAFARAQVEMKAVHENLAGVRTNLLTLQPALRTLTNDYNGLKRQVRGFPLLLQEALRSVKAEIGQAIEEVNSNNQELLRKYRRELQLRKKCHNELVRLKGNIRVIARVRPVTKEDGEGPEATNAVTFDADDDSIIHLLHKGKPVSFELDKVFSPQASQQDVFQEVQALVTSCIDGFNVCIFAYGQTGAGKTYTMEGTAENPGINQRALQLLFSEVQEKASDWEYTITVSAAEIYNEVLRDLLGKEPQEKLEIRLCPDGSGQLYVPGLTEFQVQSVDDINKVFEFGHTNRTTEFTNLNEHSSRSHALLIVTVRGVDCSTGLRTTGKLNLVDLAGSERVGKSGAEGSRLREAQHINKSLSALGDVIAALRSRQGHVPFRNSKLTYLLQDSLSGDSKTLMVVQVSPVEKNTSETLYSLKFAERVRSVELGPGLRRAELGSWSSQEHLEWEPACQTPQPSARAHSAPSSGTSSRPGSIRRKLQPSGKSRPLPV

[5] = tested on: HeLa; experiment: Cell cycle arrest at mitotic phase in human HeLa cells assessed as mitotic index after 6 hrs; type: functional
[6] = tested on: HeLa; experiment: Cell cycle arrest at mitotic phase in human HeLa cells assessed as formation of monopolar spindles at 40 nM after 6 hrs by DAPI staining-based microscopic analysis; type: functional
[7] = tested on: Mus musculus; experiment: Toxicity in athymic nude BALB/cAJcL mouse xenografted with HCT116 cells assessed as mortality at 75 mg/kg, iv administered on days 1,3,5,8,10 and 12; type: organism-based, HCT-116; details: in vivo
[8] = target: T3, Kinesin-like protein KIF11 (Homo sapiens) (UniProt P52732)
T3 sequence (whole entry): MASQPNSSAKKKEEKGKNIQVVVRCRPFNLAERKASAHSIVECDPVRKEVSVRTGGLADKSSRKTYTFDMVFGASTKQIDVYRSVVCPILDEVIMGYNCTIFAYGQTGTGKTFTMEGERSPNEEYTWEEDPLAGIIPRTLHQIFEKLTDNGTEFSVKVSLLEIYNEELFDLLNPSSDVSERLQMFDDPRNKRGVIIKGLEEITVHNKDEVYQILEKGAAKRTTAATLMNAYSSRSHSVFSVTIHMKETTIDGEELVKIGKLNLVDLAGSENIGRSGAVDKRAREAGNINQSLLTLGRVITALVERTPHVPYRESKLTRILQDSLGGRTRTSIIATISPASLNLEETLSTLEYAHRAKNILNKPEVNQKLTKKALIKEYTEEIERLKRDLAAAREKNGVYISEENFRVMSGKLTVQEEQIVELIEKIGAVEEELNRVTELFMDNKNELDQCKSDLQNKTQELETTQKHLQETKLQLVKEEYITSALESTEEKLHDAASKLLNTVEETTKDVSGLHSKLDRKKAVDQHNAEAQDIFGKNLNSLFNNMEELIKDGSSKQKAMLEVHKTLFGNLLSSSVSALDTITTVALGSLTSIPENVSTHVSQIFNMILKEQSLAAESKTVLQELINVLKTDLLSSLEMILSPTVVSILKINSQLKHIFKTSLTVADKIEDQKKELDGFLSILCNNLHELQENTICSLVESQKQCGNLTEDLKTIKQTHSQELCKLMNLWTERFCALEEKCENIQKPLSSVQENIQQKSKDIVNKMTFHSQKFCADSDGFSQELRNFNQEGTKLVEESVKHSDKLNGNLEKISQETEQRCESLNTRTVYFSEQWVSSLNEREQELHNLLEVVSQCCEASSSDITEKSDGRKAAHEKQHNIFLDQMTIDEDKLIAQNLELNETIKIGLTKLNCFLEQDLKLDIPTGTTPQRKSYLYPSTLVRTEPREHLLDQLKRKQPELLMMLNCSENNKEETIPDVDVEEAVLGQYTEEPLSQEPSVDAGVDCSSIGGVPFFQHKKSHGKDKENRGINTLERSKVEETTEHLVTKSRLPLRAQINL
Description: Binding affinity to KSP motor domain (unknown origin) assessed as change in melting temperature at 100 uM by differential scanning fluorimetry in presence of 1 mM ATP

Structure (SMILES)	T/C [1] [%]	T/C [2] [%]	inhibition [3]	inhibition [4]	MI50 [5] [nM]	Activity [6]	Activity [7]	ΔTm [8] [°C]
N[C@@H](CSC1(c2ccc(C(F)(F)F)cc2)c2ccccc2CCc2ccccc21)C(=O)O	9	21	inactive	inactive	14	Active	Non-toxic	–
COc1ccc(C2(SC[C@H](N)C(=O)O)c3ccccc3CCc3ccccc32)cc1	–	26	inactive	inactive	–	–	–	12
